In publication PMC9358547 (2022):

Key:
[1] = system: HTPu-var-1-G4 (human telomere variant-1, 23-mer) (DNA, G4) TAGGGTTAGGGTTAGGGTTAGGG; test: electrophoretic mobility shift assay with complementary strand HTPy-var-1; settings: 100 mM K+; 30 mM sodium cacodylate pH 7.0, 1 mM EDTA; DNA:peptide 1:120, 1:160; excess HTPy-var-1 added afterwards
[2] = system: HTPu-var-1-G4 (human telomere variant-1, 23-mer) (DNA, G4) TAGGGTTAGGGTTAGGGTTAGGG; test: circular dichroism titration; settings: 30 mM sodium cacodylate pH 7.0, 0.5 mM EDTA, 6 μM DNA, apparent constant
[3] = system: HTPu-var-1-G4 (human telomere variant-1, 23-mer) (DNA, G4) TAGGGTTAGGGTTAGGGTTAGGG; test: UV melting at 295 nm; settings: 30 mM sodium cacodylate pH 7.0, 0.5 mM EDTA, 4 μM DNA
[4] = system: HTPu-var-1-G4 (human telomere variant-1, 23-mer) (DNA, G4) TAGGGTTAGGGTTAGGGTTAGGG; test: tryptophan fluorescence quenching titration; settings: 30 mM buffer pH 7.0, 0.5 mM EDTA, 25 °C, 4 μM peptide titrated with DNA

Q: How did the binding [1] turn out when H-VAQKW-OH was run?
A: yes

Q: And the Kb ([2]; 100 mM K+)?
A: 290 ± 10 µM

Q: What about the Kb ([2]; 100 mM Na+) of the same substance?
A: 260 ± 30 µM

Q: What about the ΔTm ([3]; 100 mM K+, DNA:peptide 1:40, non-monotonic (66.1 at 1:80)) of the same substance?
A: -1.0 °C

Q: What about the ΔTm ([3]; 100 mM Na+, DNA:peptide 1:230) of the same substance?
A: -0.9 °C

Q: What about the Kb ([4]; 100 mM K+) of the same substance?
A: 0.71 ± 0.42 µM

Q: What about the Kb ([4]; 100 mM Na+) of the same substance?
A: 0.46 ± 0.11 µM
